This note sets out measurements from patent publication US20240140970A1, “A […], AND PREPARATION METHOD AND USE THEREOF” (ASCENTAWITS PHARMACEUTICALS, LTD., priority 2021, published 2024).

Where “and” joins values, the source holds several entries; their conditions need not be identical. Equal values may be shown once.

A short description of data set [1]: Stability of aqueous solution of AST-2660-D8-sodium salt by 31P-NMR with HMPA as internal standard. It counts as physicochemical. As to the method:
This example is to study the stability of the sample solution by detecting the content of the aqueous solution of AST-2660-D8-sodium salt: ^31P-NMR was used for detection, and the content of the aqueous solution of AST-2660-D8-sodium salt was characterized by comparing the area ratio of ^31peak of HMPA as an internal standard to that of ^31P peak of AST-2660-D8 sodium salt within 48 hours, thereby determining whether the mass of the sample solution was reduced as a result of degradation.
^31P-NMR of the samples was run on an NMR instrument.
HMPA (21.8 mg, 0.1217 mmol) was dissolved in water (2.20 mL), wherein the total mass was […], and the concentration of HMPA was 5.72×10^−5 mmol/mg. A solution of AST-2660-D8-sodium salt (588 mg, about 0.5 mL) and a solution of HMPA (293 mg, 1.676×10^−2 mmol) were mixed together as samples for 31 P-NMR analysis under −20° C. storage conditions at different times. The ratio of integrated peak area of the nuclear magnetic peak (about 29.874 ppm) for the corresponding HMPA to that of the nuclear magnetic peak (about 24.491 ppm) for AST-2660-D8-sodium salt in the nuclear magnetic spectrum was calculated, and the integrated peak of the nuclear magnetic peak for HMPA was set as 1.
According to the same operation, a sample with another concentration was formulated for detection, and ^31P-NMR analysis was performed under −78° C. storage conditions at different times. […]

The nature of data set [2]: Stability of AST-2660 and AST-2660-D8 methanol stock/working solutions (LC-MS/MS peak area, stored vs fresh solution). In kind it is physicochemical. As to the method:
The relevant parameters of the LC-MS/MS experimental method are provided.
AST-2660 (prepared by referring to Example 1 and selecting non-deuterated raw materials) standard stock solution (methanol solution with a concentration of 1.0 mg/ml): an appropriate amount of AST-2660 was taken, added with an appropriate amount of methanol, diluted and mixed thoroughly to obtain 1.0 mg/ml of solution.
A 100 μL standard stock solution of AST-2660 was taken, added with 9900 μL of methanol, diluted and mixed thoroughly to obtain 10.0 μg/ml of calibration standard working solution.
[…] A 20 μL of internal standard stock solution of AST-2660-D8 was taken, added with 9980 μL methanol, diluted and mixed thoroughly to obtain 100 ng/ml of internal standard working solution.
It can be seen from Table 10 that the accuracy of the stability of the AST-2660 working solution and the internal standard AST-2660-D8 working solution was within ±8.1%, and the precision was less than 5.5%. Stability analysis criteria: the difference between the storage stable solution and the freshly prepared solution must be within ±10.0%, and the CV of each replicate experiment must not be greater than 10.0%. Therefore, both AST-2660 and AST-2660-D8 (internal standard) working solutions had good stability and met the requirements under various storage conditions.

[3] abbreviates: 100 ng/ml methanol solution, fresh stock solution, t = 0.
The mark [4] stands for this setting: 100 ng/ml methanol solution, working solution stored at −70° C., t = 26 days.
The mark [5] stands for this setting: 1 mg/ml methanol solution, fresh stock solution, t = 0.
The mark [6] stands for this setting: 1 mg/ml methanol solution, stock solution stored at −70° C., t = 26 days.

Consider `[2H]C1([2H])N(P(=O)([O-])N2C([2H])([2H])C2([2H])[2H])C1([2H])[2H].[Na+]` [AST-2660-D8 sodium salt], for which the “concentration of AST-2660-D8 sodium salt” value in data set [1] (aqueous solution after storage at −20° C. for 6 months) amounted to 1370 µg/mL; in data set [1] (aqueous solution after storage at −78° C. for 6 months) it was 1710 µg/mL; in data set [1] (aqueous solution, day 0), 1890 µg/mL. Also, the decrease of concentration in data set [1] (aqueous solution, 6 months of storage at −20° C.) came to 27.5%; in data set [1] (aqueous solution, 6 months of storage at −78° C.), 9.5%. Further, in data set [1] (stored at −20 to −78° C. for 48 hours (2 days)), the “stability of solution (in words)” value is reported as “stable”. The “RE (% difference, peak area stock vs fresh solution)” value in data set [2] (100 ng/ml AST-2660-D8 methanol working solution, 26 days at −70° C.) is listed as “RE: 0.9%”. For the same compound, the “Peak area (AST-2660-D8), Mean value” is 3282130 in data set [2] (setting [3]), 3311013 in data set [2] (setting [4]), 548278.5 in data set [2] (setting [5]) and 537342.5 in data set [2] (setting [6]). Further, the “Peak area (AST-2660-D8), single replicates” value in data set [2] (setting [3]) was 3253860 and 3323720 and 3204960 and 3285390 and 3314390 and 3310460; in data set [2] (setting [4]), 3289570 and 3332520 and 3294750 and 3307750 and 3306110 and 3335380; in data set [2] (setting [5]) it was 574450 and 589227 and 535059 and 530296 and 537317 and 523322; in data set [2] (setting [6]), 539154 and 532283 and 520321 and 550350 and 532469 and 549478. Further, the “Deviation % over fresh stock solution” value is on record as 0.9% in data set [2] (setting [4]) and −2.0% in data set [2] (setting [6]). Also, the “stability of methanol solution (in words)” value in data set [2] (stored for 26 days at −70° C.) is listed as “strong stability”.
